For data set [1], the target named is T1, Amine oxidase [flavin-containing] A (Homo sapiens, UniProt P21397).
T1 sequence (P21397 whole entry): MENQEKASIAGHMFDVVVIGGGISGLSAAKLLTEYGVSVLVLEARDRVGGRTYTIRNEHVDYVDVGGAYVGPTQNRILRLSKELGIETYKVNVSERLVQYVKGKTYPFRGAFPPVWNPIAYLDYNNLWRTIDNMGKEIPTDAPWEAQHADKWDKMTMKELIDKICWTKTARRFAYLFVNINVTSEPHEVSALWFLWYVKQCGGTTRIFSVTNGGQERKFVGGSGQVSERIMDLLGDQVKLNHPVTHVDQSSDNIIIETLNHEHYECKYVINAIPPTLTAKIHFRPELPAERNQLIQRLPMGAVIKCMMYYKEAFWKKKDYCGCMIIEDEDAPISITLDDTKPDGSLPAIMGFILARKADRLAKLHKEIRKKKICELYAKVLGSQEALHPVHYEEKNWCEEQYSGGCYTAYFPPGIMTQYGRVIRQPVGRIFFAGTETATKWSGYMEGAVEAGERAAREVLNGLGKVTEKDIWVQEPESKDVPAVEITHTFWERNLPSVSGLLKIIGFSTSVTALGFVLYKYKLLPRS
Nature of the data set: Inhibition of human recombinant MAOA using kynuramine as substrate by fluorimetry.

Data set [2] addresses T2, Amine oxidase [flavin-containing] B (Homo sapiens, UniProt P27338).
T2 sequence (P27338 whole entry): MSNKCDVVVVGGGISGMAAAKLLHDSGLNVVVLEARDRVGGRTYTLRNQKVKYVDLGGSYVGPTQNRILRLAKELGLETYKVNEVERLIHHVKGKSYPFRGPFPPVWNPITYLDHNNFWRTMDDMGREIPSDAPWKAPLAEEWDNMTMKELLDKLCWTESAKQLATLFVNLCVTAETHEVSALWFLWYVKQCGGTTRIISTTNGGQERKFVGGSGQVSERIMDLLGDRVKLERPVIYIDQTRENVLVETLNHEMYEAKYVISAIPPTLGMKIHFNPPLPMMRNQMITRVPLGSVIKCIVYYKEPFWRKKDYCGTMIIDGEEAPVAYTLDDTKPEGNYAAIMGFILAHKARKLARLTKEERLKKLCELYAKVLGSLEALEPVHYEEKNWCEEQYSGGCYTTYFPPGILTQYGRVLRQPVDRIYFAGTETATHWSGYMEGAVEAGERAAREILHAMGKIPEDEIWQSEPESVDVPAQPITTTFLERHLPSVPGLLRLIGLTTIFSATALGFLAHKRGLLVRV
The experiment in a line: Inhibition of human recombinant MAOB using kynuramine as substrate by fluorimetry.

The target in data set [3] is T2, Amine oxidase [flavin-containing] B. The experiment in a line: Competitive inhibition of human recombinant MAOB by Lineweaver-Burk plot analysis.

Molecules are shown by their SMILES.

In the case of `O=C1/C(=C/c2ccccc2O)Oc2cc(O)ccc21`, the IC50 – broadly, the midpoint of a concentration-inhibition curve – in data set [1] worked out at 17700 nM; in data set [2] it was 11500 nM.
For `COc1ccc(NC(=O)N2CCc3ccccc32)cc1`, the IC50 was above 100000 nM in data set [1] and 2620 nM in data set [2].
For the compound `O=C1NC(=O)/C(=C\c2ccc(Br)cc2)S1`, the IC50 stood at 43500 nM in data set [1] and 228 nM in data set [2]. Besides, in data set [3], the “inhibition (INH)” value was “Active”.
As for `CCOC1CC(c2ccccc2)=NN1c1ccc([N+](=O)[O-])cc1` (stereo not drawn), the results for the 50% inhibitory concentration (IC50) in data set [1] and in data set [2] were 5360 nM and 921 nM, respectively.
The matching figures for `CN(C)c1ccc(/C=C2\Oc3ccccc3C2=O)cc1`: 268 nM and 99 nM.
On the same counts, the results for `Cc1ccc2c(c1)O/C(=C\c1ccccc1)C2=O` are 40200 nM and 3350 nM.
For the compound `CN(C)c1ccc(/C=C2\Oc3cc(O)ccc3C2=O)cc1`, in data set [1], the concentration for half-maximal inhibition (IC50) came out at 979 nM.
In the case of `Cc1[nH]n(-c2ccccc2)c(=O)c1/C=N/NC(=O)c1cccnc1`, the half-inhibitory concentration (IC50) in data set [1] is above 100000 nM; in data set [2], 13300 nM.
On the same counts, the results for `O=C1/C(=C/c2ccc(Cl)cc2)Oc2ccccc21` are 709 nM and 305 nM.

(Values after ChEMBL document CHEMBL1944614, “A scaffold hopping approach to identify novel monoamine oxidase B inhibitors” (Bioorg Med Chem Lett, 2012).)
